Each structure is given as a SMILES string. Where only a bound is given, the exact number is not on record here.

In this assay the target is T1, human CYP11B2 (Homo sapiens, UniProt P19099).
T1 construct: expressed in transfected cells
T1 sequence (P19099 25-503): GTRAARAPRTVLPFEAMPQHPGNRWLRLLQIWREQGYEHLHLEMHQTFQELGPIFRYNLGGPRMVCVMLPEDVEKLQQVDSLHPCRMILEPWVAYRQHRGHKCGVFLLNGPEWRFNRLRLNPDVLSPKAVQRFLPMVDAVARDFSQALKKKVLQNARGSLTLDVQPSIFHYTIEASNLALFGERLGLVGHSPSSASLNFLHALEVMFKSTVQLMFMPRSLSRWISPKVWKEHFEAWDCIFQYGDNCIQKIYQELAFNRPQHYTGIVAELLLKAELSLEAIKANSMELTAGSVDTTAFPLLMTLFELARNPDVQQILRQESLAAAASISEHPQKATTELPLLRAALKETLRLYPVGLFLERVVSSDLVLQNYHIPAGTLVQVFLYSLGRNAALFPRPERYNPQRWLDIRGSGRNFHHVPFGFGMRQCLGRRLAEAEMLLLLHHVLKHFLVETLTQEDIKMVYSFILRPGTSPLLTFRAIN
Description: G-402 cellular enzyme assay, human CYP11B2 (aldosterone release, HTRF). To be noted: G-402 cells, 1 μM Deoxycorticosterone. Type of assay: cell-based. From the text:
Herein we identified the use of the G-402 cell line as a host cell to ectopically express (transiently or stably) enzymes of the CYP11 family. Specifically we developed stable G-402 cells expressing ectopically human CYP11B1, human CYP11B2, human CYP11A1, cynmolgus CYP11B1 or cynomolgus CYP11B2 enzyme activity. Importantly the identified cell line G-402 expresses co-factors (adrenodoxin and adrenodoxin reductase) important for the activity of the CYP11 family and no relevant enzyme activity of the CYP11 family (in comparison to H295R cells) was detected in these cells. Therefore the G-402 cell line is uniquely suited as a host cell for the ectopic expression of enzymes from the CYP11 family.
G-402 cells can be obtained from ATCC(CRL-1440) and were originally derived from a renal leiomyoblastoma.
The expression plasmids contain the ORF for either human/cyno CYP11B1 or CYP11B2 under the control of a suitable promoter (CMV-promoter) and a suitable resistance marker (neomycin). Using standard techniques the expression plasmid is transfected into G-402 cells and these cells are then selected for expressing the given resistance markers. Individual cell-clones are then selected and assessed for displaying the desired enzymatic activity using 11-Deoxycorticosterone (Cyp11B2) or 11-Deoxycortisol (Cyp11B1) as a substrate.
G-402 cells expressing CYP11 constructs were established as described above and maintained in McCoy's 5a Medium Modified, ATCC Catalog No. 30-2007 containing 10% FCS and 400 μg/ml G418 (Geneticin) at 37° C. under an atmosphere of 5% CO2/95% air.
Cellular enzyme assays were performed in DMEM/F12 medium containing 2.5% charcoal treated FCS and appropriate concentration of substrate (0.3-10 uM 11-Deoxycorticosterone, 11-Deoxycortisol or Corticosterone). For assaying enzymatic activity, cells were plated onto 96 well plates and incubated for 16 h. An aliquot of the supernatant is then transferred and analyzed for the concentration of the expected product (Aldosterone for CYP11B2; Cortisol for CYP11B1). The concentrations of these steroids can be determined using HTRF assays from CisBio analyzing either Aldosterone or Cortisol.
Inhibition of the release of produced steroids can be used as a measure of the respective enzyme inhibition by test compounds added during the cellular enzyme assay. The dose dependent inhibition of enzymatic activity by a compound is calculated by means of plotting added inhibitor concentrations (x-axes) vs. measured steroid/product level (y-axes). The inhibition is then calculated by fitting the following 4-parameter sigmoidal function (Morgan-Mercer-Flodin (MMF) model) to the raw data points using the least squares method:
[formula] wherein, A is the maximum y value, B is the EC50 factor determined using XLFit, C is the minimum y value and D is the slope value.
EC50 values for compounds claimed herein were tested with the G402-based assay system described. Cyp11B2 enzyme activity was tested in presence of 1 μM Deoxycorticosterone and variable amounts of inhibitors; Cyp11B1 enzyme activity was tested in presence of 1 μM Deoxycortisol and variable amounts of inhibitors.
(In general: Time-resolved FRET reads energy transfer from a long-lived donor to a nearby acceptor.)
Turning to `CNC(=O)c1cncc(N2CCc3cc(Cl)ccc3C2=O)c1` [Example 43, 5-(6-Chloro-1-oxo-3,4-dihydro-1H-isoquinolin-2-yl)-N-methyl-nicotinamide], the 50% effective concentration (EC50) turned out to be 372 nM.
To `O=C1c2ccc(Cl)cc2CCN1c1cncc(-c2ccc(Cl)c(Cl)c2)c1` [Example 241, 6-Chloro-2-[5-(3,4-dichloro-phenyl)-pyridin-3-yl]-3,4-dihydro-2H-isoquinolin-1-one] belongs 582 nM; to `CS(=O)(=O)NC1CCCc2c1cncc2N1CCc2cc(Cl)ccc2C1=O` (single isomer, unassigned) [Example 324, N-((S or R)-6-Chloro-1-oxo-3,4,5′,6′,7′,8′-hexahydro-1H-[2,4′]biisoquinolinyl-8′-yl)-methanesulfonamide], 2810 nM.
To `CC(=O)N[C@@H]1CCCc2c1cncc2N1C(=O)c2ccc(Cl)cc2[C@@H]1C1CC1` (single isomer, unassigned) [Example 374, N-[(R or S)-4-((S or R)-5-Chloro-3-cyclopropyl-1-oxo-1,3-dihydro-isoindol-2-yl)-5,6,7,8-tetrahydro-isoquinolin-8-yl]-acetamide] belongs 354 nM; to `CCOc1ccc2c(n1)C(C)(C)N(c1cncc(CNc3cc[nH]n3)c1)C2=O` [Example 385, 2-Ethoxy-7,7-dimethyl-6-{5-[(1H-pyrazol-3-ylamino)-methyl]-pyridin-3-yl}-6,7-dihydro-pyrrolo[3,4-b]pyridin-5-one], 893 nM; to `CS(=O)(=O)Nc1cncc(N2CCc3cc(Cl)ccc3C2=O)c1` [Example 220, N-[5-(6-Chloro-1-oxo-3,4-dihydro-1H-isoquinolin-2-yl)-pyridin-3-yl]-methanesulfonamide], 1080 nM.
Under `CC(=O)NC1CCCc2c1cncc2N1CCc2cc(Cl)ccc2C1=O` (single isomer, unassigned) [Example 320, N-((R or S)-6-Chloro-1-oxo-3,4,5′,6′,7′,8′-hexahydro-1H-[2,4′]biisoquinolinyl-8′-yl)-acetamide] stands 8030 nM; under `CS(=O)(=O)NC1CCc2c1cncc2N1Cc2cc(Cl)ccc2C1=O` (single isomer, unassigned) [Example 335, N-[(S or R)-4-(5-Chloro-1-oxo-1,3-dihydro-isoindol-2-yl)-6,7-dihydro-5H-[2]pyrindin-7-yl]-methanesulfonamide], 13800 nM; under `Cn1cnnc1-c1cncc(N2CCc3cc(Cl)ccc3C2=O)c1` [Example 58, 6-Chloro-2-[5-(4-methyl-4H-[1,2,4]triazol-3-yl)-pyridin-3-yl]-3,4-dihydro-2H-isoquinolin-1-one], 2060 nM.
As for `CC1(C)CN(c2cccnc2)C(=O)c2ccc(Cl)cc21` [Example 102, 6-Chloro-4,4-dimethyl-2-pyridin-3-yl-3,4-dihydro-2H-isoquinolin-1-one], it took 1540 nM to reach a half-maximal effect (EC50).
`CC(=O)NC1CCc2c1cncc2N1CCc2cc(Cl)ccc2C1=O` (single isomer, unassigned) [Example 332, N-[(R or S)-4-(6-Chloro-1-oxo-3,4-dihydro-1H-isoquinolin-2-yl)-6,7-dihydro-5H-[2]pyrindin-7-yl]-acetamide] had a concentration giving a half-maximal response (EC50) of 14800 nM.
Take `CCS(=O)(=O)NC1CCc2c1cncc2N1Cc2cc(Cl)ccc2C1=O` (single isomer, unassigned) [Example 337, Ethanesulfonic acid [(S or R)-4-(5-chloro-1-oxo-1,3-dihydro-isoindol-2-yl)-6,7-dihydro-5H-[2]pyrindin-7-yl]-amide]: a half-maximal effect (EC50) was put at 24300 nM.
Under `O=C(Nc1ccc(F)cc1)c1cncc(N2CCc3cc(Cl)ccc3C2=O)c1` [Example 45, 5-(6-Chloro-1-oxo-3,4-dihydro-1H-isoquinolin-2-yl)-N-(4-fluoro-phenyl)-nicotinamide] stands 295 nM.
Turning to `CCS(=O)(=O)NCc1cncc(N2CCc3cc(Cl)ccc3C2=O)c1` [Example 25, Ethanesulfonic acid [5-(6-chloro-1-oxo-3,4-dihydro-1H-isoquinolin-2-yl)-pyridin-3-ylmethyl]-amide], the EC50 is 401 nM.
Under `O=c1c2ccc(Cl)cc2ccn1-c1cncc(F)c1` [Example 54, 6-Chloro-2-(5-fluoro-pyridin-3-yl)-2H-isoquinolin-1-one] stands 212 nM.
The compound `CS(=O)(=O)NC1CCc2c1cncc2N1CCc2cc(Cl)ccc2C1=O` (single isomer, unassigned) [Example 330, N-[(S or R)-4-(6-Chloro-1-oxo-3,4-dihydro-1H-isoquinolin-2-yl)-6,7-dihydro-5H-[2]pyrindin-7-yl]-methanesulfonamide] showed an EC50 above 30000 nM.
Under `CCC(=O)NC1CCc2c1cncc2N1Cc2cc(Cl)ccc2C1=O` (single isomer, unassigned) [Example 338, N-[(S or R)-4-(5-Chloro-1-oxo-1,3-dihydro-isoindol-2-yl)-6,7-dihydro-5H-[2]pyrindin-7-yl]-propionamide] stands above 30000 nM.
Under `CN1CCN(Cc2ccncc2N2CCc3cc(Cl)ccc3C2=O)CC1` [Example 280, 6-Chloro-2-[4-(4-methyl-piperazin-1-ylmethyl)-pyridin-3-yl]-3,4-dihydro-2H-isoquinolin-1-one] stands 1800 nM; under `CC(O)c1c(F)cncc1N1CCc2cc(Cl)ccc2C1=O` (stereo not drawn) [Example 62, 6-Chloro-2-[5-fluoro-4-(l-hydroxy-ethyl)-pyridin-3-yl]-3,4-dihydro-2H-isoquinolin-1-one], 935 nM.
To `CC(C)(Nc1cncc(N2CCc3cc(Cl)ccc3C2=O)c1)C(=O)O` [Example 227, 2-[5-(6-Chloro-1-oxo-3,4-dihydro-1H-isoquinolin-2-yl)-pyridin-3-ylamino]-2-methyl-propionic acid] belongs 4210 nM; to `CC[C@H]1c2cc(Cl)ccc2C(=O)N1c1cncc2c1CC[C@@H]2NS(C)(=O)=O` (single isomer, unassigned) [Example 370, N-[(S or R)-4-((S or R)-5-Chloro-3-ethyl-1-oxo-1,3-dihydro-isoindol-2-yl)-6,7-dihydro-5H-[2]pyrindin-7-yl]-methanesulfonamide], 195 nM.
The compound `CCC(=O)N[C@H]1CCCc2c1cncc2N1C(=O)c2ccc(Cl)cc2[C@@H]1CC` (single isomer, unassigned) [Example 351, N-[(S or R)-4-((S or R)-5-Chloro-3-ethyl-1-oxo-1,3-dihydro-isoindol-2-yl)-5,6,7,8-tetrahydro-isoquinolin-8-yl]-propionamide] displayed an EC50 of 3660 nM.
Under `COc1ccc2c(c1)CCN(c1cccnc1)C2=O` [Example 94, 6-Methoxy-2-pyridin-3-yl-3,4 dihydro-2H-isoquinolin-1-one] stands 2060 nM; under `CCC(=O)N[C@@H]1CCc2c1cncc2N1C(=O)c2ccc(Cl)cc2[C@@H]1C` (single isomer, unassigned) [Example 375, N-[(R or S)-4-((S or R)-5-Chloro-3-methyl-1-oxo-1,3-dihydro-isoindol-2-yl)-6,7-dihydro-5H-[2]pyrindin-7-yl]-propionamide], 5620 nM.
For `CC(=O)N[C@H]1CCCc2c1cncc2N1C(=O)c2ccc(Cl)cc2[C@@H]1C1CC1` (single isomer, unassigned) [Example 371, N-[(S or R)-4-((S or R)-5-Chloro-3-cyclopropyl-1-oxo-1,3-dihydro-isoindol-2-yl)-5,6,7,8-tetrahydro-isoquinolin-8-yl]-acetamide], the EC50 came out at 4260 nM.
Compound `COC(OC)c1ccncc1N1CCc2cc(Cl)ccc2C1=O` [Example 61, 6-Chloro-2-(4-dimethoxymethyl-pyridin-3-yl)-3,4-dihydro-2H-isoquinolin-1-one] had an EC50 of 2830 nM.

For orientation: EC50 means the concentration giving half of the maximal effect. Low readings indicate a more potent agent, high ones a less potent agent.

(Values after patent publication US9133158B2, “Bicyclic dihydroisoquinoline-1-one derivatives” (Hoffmann-La Roche Inc., priority 2011, dated 2015).)
